Source: publication PMC10687071 (The Journal of Biological Chemistry, 2023)
Positions count from the first letter of the chain named.

Key:
[1] = biological target: T1, Y71R mutant EAG1 channels (Mus musculus, UniProt Q60603, Y71R); assay: TEVC recording, imipramine inhibition, Y71R mutant; type: cell-based; settings: Y71R mutant EAG1 channel, +50 mV
T1 construct: expressed in transfected cells; host or cells: Xenopus laevis oocytes injected with cRNA
T1 sequence (Q60603 1-989 Y71R): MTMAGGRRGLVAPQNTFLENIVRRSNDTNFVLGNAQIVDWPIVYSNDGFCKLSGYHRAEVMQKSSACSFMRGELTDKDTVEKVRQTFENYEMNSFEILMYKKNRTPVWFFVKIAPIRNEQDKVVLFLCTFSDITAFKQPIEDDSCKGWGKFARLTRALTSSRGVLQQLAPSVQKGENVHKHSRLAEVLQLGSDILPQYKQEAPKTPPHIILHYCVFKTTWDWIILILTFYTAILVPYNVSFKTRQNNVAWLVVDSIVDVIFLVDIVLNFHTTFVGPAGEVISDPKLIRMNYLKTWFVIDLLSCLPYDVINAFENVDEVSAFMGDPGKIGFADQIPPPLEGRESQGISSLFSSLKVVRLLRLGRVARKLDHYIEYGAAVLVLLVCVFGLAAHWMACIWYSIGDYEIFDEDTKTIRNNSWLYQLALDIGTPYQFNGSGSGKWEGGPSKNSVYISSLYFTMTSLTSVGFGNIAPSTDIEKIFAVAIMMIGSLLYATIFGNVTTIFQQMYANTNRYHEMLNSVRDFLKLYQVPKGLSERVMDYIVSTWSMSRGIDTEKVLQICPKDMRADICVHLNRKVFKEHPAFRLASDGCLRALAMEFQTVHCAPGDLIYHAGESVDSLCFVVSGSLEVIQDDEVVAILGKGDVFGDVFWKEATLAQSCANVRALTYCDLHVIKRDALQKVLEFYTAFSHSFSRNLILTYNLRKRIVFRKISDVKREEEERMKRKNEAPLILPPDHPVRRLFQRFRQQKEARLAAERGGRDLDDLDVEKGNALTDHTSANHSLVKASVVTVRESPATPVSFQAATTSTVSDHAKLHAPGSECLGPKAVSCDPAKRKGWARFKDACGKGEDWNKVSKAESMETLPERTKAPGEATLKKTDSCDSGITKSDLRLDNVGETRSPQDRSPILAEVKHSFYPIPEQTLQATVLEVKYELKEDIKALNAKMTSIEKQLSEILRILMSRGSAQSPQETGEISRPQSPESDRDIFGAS
Source text: (§1) The cDNA encoding wild-type (WT) mouse EAG1 channels in pGH19 vector was kindly provided by G. Robertson (University of Wisconsin-Madison, Madison, WI). The mutant ΔPAS EAG1 channel in pGH19 with the deletion of the PAS domain residues 2 to 130 was generated by Bio Basic Inc and verified by DNA sequencing (Genewiz). Mutant EAG1 channels with single amino acid substitutions were generated by Genewiz and verified by DNA sequencing. cRNA was transcribed using the T7 mMessage mMachine kit (Thermo Fisher Scientific). Defolliculated Xenopus laevis oocytes were purchased from Ecocyte Bioscience or Xenopus1 and injected with the cRNA using a Nanoinject II oocyte injector (Drummond).
(§2) For EAG1 current recordings, oocytes were placed into a handmade chamber containing a bath solution for the current recording. The currents were recorded using a TEVC technique with OC-725C amplifier (Warner Instruments) and pClamp11 software (Molecular Devices). The signals were digitized using Digidata 1550 (Molecular Devices). Patch pipettes were pulled from borosilicate glass and had resistances of 0.7 to 1.5 MΩ. The recording (bath) solution contained 96 mM NaCl, 4 mM KCl, 0.1 mM CaCl2, 1.8 mM MgCl2, and 5 mM HEPES, pH 7.5. The pipette solution contained 3 M KCl. […]

[2] = biological target: T2, V80G mutant EAG1 channels (Mus musculus, UniProt Q60603, V80G); assay: TEVC recording, imipramine inhibition, V80G mutant; type: cell-based; settings: V80G mutant EAG1 channel, +50 mV
T2 construct: expressed in transfected cells; host or cells: Xenopus laevis oocytes injected with cRNA
T2 sequence (Q60603 1-989 V80G): T1 sequence (Q60603 1-989 Y71R) with R71Y, V80G
Source text: as §1, §2

IC50 [1]: 43.4 ± 7.5 µM | IC50 [2]: 57.1 ± 3.1 µM
Structure (SMILES): CN(C)CCCN1c2ccccc2CCc2ccccc21 [imipramine]
